Reference: patent publication US5298517A, “Angiotensin II receptor blocking agents” (American Cyanamid Company, priority 1993, dated 1994)
pIC50: −log10 of the molar value.

Biological target: T1, Angiotensin II Receptor (Bos taurus, UniProt P25104)
T1 construct: The brownish tissue forming the adrenal cortex is scraped off and finely minced with scissors before homogenization; tissue local slaughter house (Maxwell-Cphen); host or cells: beef adrenal cortex, microsomal membranes
T1 sequence (P25104 1-359): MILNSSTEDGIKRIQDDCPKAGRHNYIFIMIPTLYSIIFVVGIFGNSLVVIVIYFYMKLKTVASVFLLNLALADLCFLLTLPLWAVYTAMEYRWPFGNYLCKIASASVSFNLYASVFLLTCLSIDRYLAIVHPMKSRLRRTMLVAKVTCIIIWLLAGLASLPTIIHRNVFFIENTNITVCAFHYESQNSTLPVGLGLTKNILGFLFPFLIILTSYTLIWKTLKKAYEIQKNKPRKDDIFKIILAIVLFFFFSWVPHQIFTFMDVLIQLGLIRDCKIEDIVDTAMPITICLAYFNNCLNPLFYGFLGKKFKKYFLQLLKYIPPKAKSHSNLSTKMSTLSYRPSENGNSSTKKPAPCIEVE
Experiment: Angiotensin II receptor binding, displacement of [^125 I](Sar^1,Ile^8)AngII from beef adrenal cortex membranes
Details: pH 7.4, 60 min, room temperature, triplicate
Excerpt: Beef adrenals are obtained from a local slaughter house (Maxwell-Cphen). [^125 I](Sar^1,Ile^8)AngII, S.A. 2200 Ci/mmole, is purchased from Dupont (NEN®, Boston, Mass.). All unlabeled AngII analogs, Dimethylsulfoxide (DMSO), nucleotides, bovine serum albumin (BSA) are purchased from Sigma Chemical Co., St. Louis, Mo. U.S.A.
Approximately sixteen (16) to twenty (20) beef adrenal glands are processed as follows: fresh adrenal glands received on crushed ice are cleaned of fatty tissues and the tough membranes encapsulating the glands are removed and discarded. The brownish tissue forming the adrenal cortex is scraped off and finely minced with scissors before homogenization. Care is taken to avoid contamination with medullary tissue during dissection. The scraped cortices are suspended in twenty volumes of an ice-cold buffer medium consisting of 10 mM Tris.HCl (pH 7.4 at 22° C.) and containing 1.0 mM EDTA and 0.2 M sucrose. Unless otherwise indicated, all subsequent operations are done at 4° C. […] This P2 pellet is discarded and the liquid phase is carefully decanted off in clean centrifuge tubes and recentrifuged at high speed ([…]) […] the protein content of the preparation is determined by the Lowry's method (Lowry, O. H., Rosebrough, N. F., Farr, A. L. and Randall, R. J., Protein measurement with Folin phenol reagent. J. Biol. Chem., […], 265-275, 1951). […]

CCCCc1nc(Cl)c([C@@]2(C)C[C@@H]3CCCN3O2)n1Cc1ccc(-c2ccccc2-c2nn[nH]n2)cc1 (racemic) [Example 8, Cis-(+/-)-2-[2-Butyl-4-chloro-1-[[2'-(1H-tetrazol-5-yl)[1,1'-biphenyl]-4-yl]methyl]-1H-imidazol-5-yl]hexahydro-2-methyl-pyrrolo[1,2-b]isoxazole]
pIC50: 7.47
